# Assay results reported in ChEMBL document CHEMBL2046362, “Synthesis and evaluation of novel potent HCV NS5A inhibitors” (Bioorg Med Chem Lett, 2012).
# pIC50: −log10 of the molar value.
# How the values were obtained:
# [1] = target: T1, Nonstructural protein 5A (Hepatitis C virus) (UniProt Q5L478); assay: Inhibition of HCV NS5A assessed as antiviral activity against HCV by viral replicon assay; details: Hepacivirus hominis
# T1 sequence (whole entry): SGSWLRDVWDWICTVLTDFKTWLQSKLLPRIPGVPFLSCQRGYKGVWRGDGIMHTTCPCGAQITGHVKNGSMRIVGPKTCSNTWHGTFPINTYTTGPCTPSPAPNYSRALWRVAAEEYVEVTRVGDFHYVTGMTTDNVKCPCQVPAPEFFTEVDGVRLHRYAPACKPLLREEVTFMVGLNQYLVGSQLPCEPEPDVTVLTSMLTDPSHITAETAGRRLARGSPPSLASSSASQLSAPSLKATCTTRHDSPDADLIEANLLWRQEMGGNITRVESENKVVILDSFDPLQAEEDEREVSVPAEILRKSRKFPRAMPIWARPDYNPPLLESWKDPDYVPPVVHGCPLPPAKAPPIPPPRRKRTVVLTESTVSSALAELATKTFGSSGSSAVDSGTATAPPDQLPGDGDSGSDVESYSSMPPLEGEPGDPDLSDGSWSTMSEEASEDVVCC
# [2] = Cytotoxicity against human HuH7 cells; type: cell-based, Huh-7
# [3] = test system: PBMC; assay: Cytotoxicity against human PBMC cells; type: cell-based; details: pbmc
# [4] = test system: CCRF-CEM; assay: Cytotoxicity against human CEM cells; type: cell-based
# [5] = test system: Vero; assay: Cytotoxicity against african green monkey Vero cells; type: cell-based; details: chlorocebus sabaeus
# [6] = Chemical stability in phosphate buffer assessed as compound degradation at pH 7 at 20 degC measured between 2 to 48 hrs during 48 hrs incubation period; type: physicochemical; details: pH 7, 48 h
# [7] = test system: Liver microsomes; assay: Half life in human liver microsomes at 1 uM measured 5 to 60 mins post dose by LC-MS/MS nethod; type: ADME, Microsome
# [8] = test system: Liver microsomes; assay: Intrinsic clearance in human liver microsomes assessed per mg protein at 1 uM measured 5 to 60 mins post dose by LC-MS/MS nethod; type: ADME, Microsome
# [9] = target: T2, CYP1A2 (Homo sapiens, UniProt P05177); assay: (§1) Inhibition of CYP1A2; type: ADME
# T2 sequence (P05177 whole entry): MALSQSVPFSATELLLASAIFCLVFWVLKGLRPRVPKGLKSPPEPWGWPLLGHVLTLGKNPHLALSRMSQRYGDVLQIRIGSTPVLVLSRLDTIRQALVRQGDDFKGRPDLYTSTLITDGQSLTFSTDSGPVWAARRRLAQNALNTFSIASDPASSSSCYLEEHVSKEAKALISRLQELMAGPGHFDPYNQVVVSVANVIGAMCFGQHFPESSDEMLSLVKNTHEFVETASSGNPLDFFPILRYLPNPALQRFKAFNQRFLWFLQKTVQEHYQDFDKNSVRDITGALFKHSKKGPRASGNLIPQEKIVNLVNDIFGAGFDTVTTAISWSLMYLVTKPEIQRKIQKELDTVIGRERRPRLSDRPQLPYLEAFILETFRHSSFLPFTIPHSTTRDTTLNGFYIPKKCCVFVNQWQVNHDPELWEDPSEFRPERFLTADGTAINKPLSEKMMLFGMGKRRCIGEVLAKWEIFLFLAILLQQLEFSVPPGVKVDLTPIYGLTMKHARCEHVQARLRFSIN
# [10] = target: T3, Cytochrome P450 1A2 (Homo sapiens, UniProt P05177); assay: as §1; type: ADME
# T3 sequence (P05177 whole entry): T2 sequence (P05177 whole entry)
# [11] = target: CYP3A4 (Homo sapiens, UniProt P08684); assay: (§2) Inhibition of CYP3A4; type: ADME
# Chain of CYP3A4 (P08684 whole entry): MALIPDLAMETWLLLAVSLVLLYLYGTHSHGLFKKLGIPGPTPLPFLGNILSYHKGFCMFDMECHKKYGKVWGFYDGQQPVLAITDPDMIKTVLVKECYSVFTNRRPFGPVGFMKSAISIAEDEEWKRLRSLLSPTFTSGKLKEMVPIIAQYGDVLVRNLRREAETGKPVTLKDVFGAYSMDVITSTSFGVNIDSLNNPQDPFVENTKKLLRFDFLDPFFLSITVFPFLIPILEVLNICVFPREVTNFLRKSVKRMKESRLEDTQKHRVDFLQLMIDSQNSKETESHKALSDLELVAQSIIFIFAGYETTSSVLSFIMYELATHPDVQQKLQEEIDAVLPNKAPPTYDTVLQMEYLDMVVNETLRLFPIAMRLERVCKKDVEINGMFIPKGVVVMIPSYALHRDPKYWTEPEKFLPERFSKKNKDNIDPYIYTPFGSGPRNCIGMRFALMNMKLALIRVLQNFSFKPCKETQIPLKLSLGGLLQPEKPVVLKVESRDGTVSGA
# [12] = target: Cytochrome P450 3A4 (Homo sapiens, UniProt P08684); assay: as §2; type: ADME
# Chain of Cytochrome P450 3A4 (P08684 whole entry): as above
# [13] = target: CYP2D6 (Homo sapiens, UniProt P10635); assay: (§3) Inhibition of CYP2D6; type: ADME
# Chain of CYP2D6 (P10635 whole entry): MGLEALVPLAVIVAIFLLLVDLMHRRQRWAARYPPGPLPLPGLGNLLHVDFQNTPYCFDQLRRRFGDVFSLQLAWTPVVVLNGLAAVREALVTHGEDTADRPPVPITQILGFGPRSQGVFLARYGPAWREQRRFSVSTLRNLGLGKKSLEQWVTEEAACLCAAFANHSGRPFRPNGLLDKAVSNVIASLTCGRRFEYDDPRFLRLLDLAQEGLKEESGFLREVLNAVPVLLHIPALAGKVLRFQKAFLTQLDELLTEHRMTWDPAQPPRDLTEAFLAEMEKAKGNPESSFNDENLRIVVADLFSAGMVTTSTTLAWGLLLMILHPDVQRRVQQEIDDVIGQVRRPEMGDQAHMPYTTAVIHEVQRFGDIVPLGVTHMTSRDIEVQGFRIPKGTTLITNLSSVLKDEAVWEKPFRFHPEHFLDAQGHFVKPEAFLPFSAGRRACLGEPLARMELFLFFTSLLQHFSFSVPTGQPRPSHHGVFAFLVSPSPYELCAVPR
# [14] = target: Cytochrome P450 2D6 (Homo sapiens, UniProt P10635); assay: as §3; type: ADME
# Chain of Cytochrome P450 2D6 (P10635 whole entry): as above
# [15] = target: CYP2C9 (Homo sapiens, UniProt P11712); assay: (§4) Inhibition of CYP2C9; type: ADME
# Chain of CYP2C9 (P11712 whole entry): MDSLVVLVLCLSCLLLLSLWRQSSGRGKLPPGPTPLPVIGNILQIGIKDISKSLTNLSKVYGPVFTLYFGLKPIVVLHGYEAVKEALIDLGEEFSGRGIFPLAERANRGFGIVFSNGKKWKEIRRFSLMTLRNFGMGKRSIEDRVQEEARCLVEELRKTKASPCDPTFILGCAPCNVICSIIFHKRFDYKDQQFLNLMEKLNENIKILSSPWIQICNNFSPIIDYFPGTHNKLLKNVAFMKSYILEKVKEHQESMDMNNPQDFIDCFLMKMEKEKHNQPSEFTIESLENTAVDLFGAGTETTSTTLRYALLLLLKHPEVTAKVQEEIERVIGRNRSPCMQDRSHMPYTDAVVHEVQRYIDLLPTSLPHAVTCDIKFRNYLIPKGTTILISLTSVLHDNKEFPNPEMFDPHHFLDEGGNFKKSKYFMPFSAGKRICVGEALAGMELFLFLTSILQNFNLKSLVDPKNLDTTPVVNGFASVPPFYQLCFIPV
# [16] = target: Cytochrome P450 2C9 (Homo sapiens, UniProt P11712); assay: as §4; type: ADME
# Chain of Cytochrome P450 2C9 (P11712 whole entry): as above
# [17] = Chemical stability in phosphate buffer assessed as compound degradation at pH 3 at 20 degC measured between 1 to 48 hrs during 48 hrs incubation period; details: pH 3, 48 h
# [18] = Cytotoxicity against human primary lymphocytes; type: cell-based; details: lymphocyte
Structure (SMILES),EC90 [1],CC50 [2],CC50 [3],CC50 [4],CC50 [5],other results
COC(=O)N[C@H](C(=O)N1C[C@H](n2cc(C(=O)OC)nn2)C[C@H]1c1ncc(-c2ccc(-c3ccc(-c4cnc([C@@H]5C[C@@H](n6cc(C(=O)OC)nn6)CN5C(=O)[C@@H](NC(=O)OC)C(C)C)[nH]4)cc3)cc2)[nH]1)C(C)C,42.8 pM,> 1 µM,6.6 µM,10.7 µM,> 100 µM,–
COC(=O)N[C@H](C(=O)N1CCC[C@H]1c1ncc(-c2ccc(-c3ccc(-c4[nH]c([C@@H]5CCCN5C(=O)[C@@H](NC(=O)OC)C(C)C)nc4F)cc3)cc2)[nH]1)C(C)C,52.5 pM,> 1 µM,16 µM,2.8 µM,83 µM,–
COC(=O)N[C@H](C(=O)N1CCC[C@H]1c1ncc(-c2ccc(-c3ccc(-c4cnc([C@@H]5CCCN5C(=O)[C@@H](NC(=O)OC)C(C)C)[nH]4)cc3)cc2)[nH]1)C(C)C,20 pM,–,–,–,–,–
COC(=O)N[C@H](C(=O)N1CCC[C@H]1c1nc(Cl)c(-c2ccc(-c3ccc(-c4[nH]c([C@@H]5CCCN5C(=O)[C@@H](NC(=O)OC)C(C)C)nc4Cl)cc3)cc2)[nH]1)C(C)C,11.4 pM,> 1 µM,2.8 µM,12 µM,100 µM,Stability [6]: Stable; t1/2 [7]: 1.992 h; CLint [8]: 5.8 µL/min/mg; IC90 [9]: > 100 µM; pIC50 [10]: < 4.00; IC90 [11]: > 100 µM; pIC50 [12]: 4.86; IC90 [13]: > 100 µM; pIC50 [14]: < 4.00; IC90 [15]: > 100 µM; pIC50 [16]: 4.09; Stability [17]: Stable
COC(=O)N[C@H](C(=O)N1C[C@@H](N=[N+]=[N-])C[C@H]1c1ncc(-c2ccc(-c3ccc(-c4cnc([C@@H]5C[C@H](N=[N+]=[N-])CN5C(=O)[C@@H](NC(=O)OC)C(C)C)[nH]4)cc3)cc2)[nH]1)C(C)C,35.2 pM,> 1 µM,20.3 µM,18.4 µM,> 100 µM,–
COC(=O)N[C@H](C(=O)N1C[C@H](n2cc(-c3ccccc3)nn2)C[C@H]1c1ncc(-c2ccc(-c3ccc(-c4cnc([C@@H]5C[C@@H](n6cc(-c7ccccc7)nn6)CN5C(=O)[C@@H](NC(=O)OC)C(C)C)[nH]4)cc3)cc2)[nH]1)C(C)C,9200 pM,> 1 µM,> 100 µM,> 100 µM,–,–
COC(=O)N[C@H](C(=O)N1CCC[C@H]1c1nc(I)c(-c2ccc(-c3ccc(-c4[nH]c([C@@H]5CCCN5C(=O)[C@@H](NC(=O)OC)C(C)C)nc4I)cc3)cc2)[nH]1)C(C)C,11 pM,> 1 µM,4.7 µM,35 µM,> 100 µM,Activity [18]: Toxic; Stability [6]: Stable; t1/2 [7]: 0.642 h; CLint [8]: 18 µL/min/mg; Stability [17]: Stable
COC(=O)N[C@H](C(=O)N1C[C@H](N=[N+]=[N-])C[C@H]1c1ncc(-c2ccc(-c3ccc(-c4[nH]c([C@@H]5C[C@@H](N=[N+]=[N-])CN5C(=O)[C@@H](NC(=O)OC)C(C)C)nc4Cl)cc3)cc2)[nH]1)C(C)C,29.5 pM,> 1 µM,9.7 µM,31 µM,> 100 µM,–
COC(=O)N[C@H](C(=O)N1CCC[C@H]1c1nc(F)c(-c2ccc(-c3ccc(-c4[nH]c([C@@H]5CCCN5C(=O)[C@@H](NC(=O)OC)C(C)C)nc4F)cc3)cc2)[nH]1)C(C)C,21.2 pM,> 1 µM,19 µM,3 µM,> 100 µM,Activity [18]: Toxic; Stability [6]: Stable; t1/2 [7]: 2.063 h; CLint [8]: 5.6 µL/min/mg; IC90 [9]: > 100 µM; pIC50 [10]: < 4.00; IC90 [11]: > 100 µM; pIC50 [12]: 5.51; IC90 [13]: > 100 µM; pIC50 [14]: < 4.00; IC90 [15]: > 100 µM; pIC50 [16]: < 4.00; Stability [17]: Stable
COC(=O)N[C@H](C(=O)N1C[C@@H](N=[N+]=[N-])C[C@H]1c1nc(Cl)c(-c2ccc(-c3ccc(-c4[nH]c([C@@H]5C[C@H](N=[N+]=[N-])CN5C(=O)[C@@H](NC(=O)OC)C(C)C)nc4Cl)cc3)cc2)[nH]1)C(C)C,74.6 pM,> 1 µM,3.3 µM,4 µM,98.1 µM,–
COC(=O)N[C@H](C(=O)N1CCC[C@H]1c1nc(-c2ccco2)c(-c2ccc(-c3ccc(-c4[nH]c([C@@H]5CCCN5C(=O)[C@@H](NC(=O)OC)C(C)C)nc4-c4ccco4)cc3)cc2)[nH]1)C(C)C,97 pM,> 1 µM,49.2 µM,2.9 µM,> 100 µM,–
COC(=O)N[C@H](C(=O)N1CCC[C@H]1c1nc(-c2ccccc2)c(-c2ccc(-c3ccc(-c4[nH]c([C@@H]5CCCN5C(=O)[C@@H](NC(=O)OC)C(C)C)nc4-c4ccccc4)cc3)cc2)[nH]1)C(C)C,700 pM,> 1 µM,> 100 µM,37.4 µM,> 100 µM,–
COC(=O)N[C@H](C(=O)N1CCC[C@H]1c1nc(-c2ccc(-c3ccc(-c4c[nH]c([C@@H]5CCCN5C(=O)[C@@H](NC(=O)OC)C(C)C)n4)cc3)cc2)c[nH]1)C(C)C,–,> 1 µM,–,–,–,t1/2 [7]: 0.938 h; pIC50 [16]: 4.23
COC(=O)N[C@H](C(=O)N1C[C@H](N=[N+]=[N-])C[C@H]1c1nc(Br)c(-c2ccc(-c3ccc(-c4[nH]c([C@@H]5C[C@@H](N=[N+]=[N-])CN5C(=O)[C@@H](NC(=O)OC)C(C)C)nc4Br)cc3)cc2)[nH]1)C(C)C,21.6 pM,> 1 µM,19.8 µM,10.8 µM,> 100 µM,–
COC(=O)N[C@H](C(=O)N1CCC[C@H]1c1nc(Br)c(-c2ccc(-c3ccc(-c4[nH]c([C@@H]5CCCN5C(=O)[C@@H](NC(=O)OC)C(C)C)nc4Br)cc3)cc2)[nH]1)C(C)C,14 pM,> 1 µM,2.9 µM,5.7 µM,84 µM,Stability [6]: Stable; t1/2 [7]: 1.12 h; CLint [8]: 10.3 µL/min/mg; Stability [17]: Stable
COC(=O)N[C@H](C(=O)N1C[C@H](N=[N+]=[N-])C[C@H]1c1nc(Cl)c(-c2ccc(-c3ccc(-c4[nH]c([C@@H]5C[C@@H](N=[N+]=[N-])CN5C(=O)[C@@H](NC(=O)OC)C(C)C)nc4Cl)cc3)cc2)[nH]1)C(C)C,9.6 pM,> 1 µM,7.8 µM,3.8 µM,> 100 µM,–
COC(=O)N[C@H](C(=O)N1C[C@@H](n2cc(C(=O)OC)nn2)C[C@H]1c1ncc(-c2ccc(-c3ccc(-c4cnc([C@@H]5C[C@H](n6cc(C(=O)OC)nn6)CN5C(=O)[C@@H](NC(=O)OC)C(C)C)[nH]4)cc3)cc2)[nH]1)C(C)C,> 10000 pM,> 1 µM,> 100 µM,> 100 µM,–,–
COC(=O)N[C@H](C(=O)N1C[C@@H](n2cc(-c3ccccc3)nn2)C[C@H]1c1ncc(-c2ccc(-c3ccc(-c4cnc([C@@H]5C[C@H](n6cc(-c7ccccc7)nn6)CN5C(=O)[C@@H](NC(=O)OC)C(C)C)[nH]4)cc3)cc2)[nH]1)C(C)C,> 10000 pM,> 1 µM,96 µM,–,> 100 µM,–
COC(=O)N[C@H](C(=O)N1CCC[C@H]1c1nc(-c2cccs2)c(-c2ccc(-c3ccc(-c4[nH]c([C@@H]5CCCN5C(=O)[C@@H](NC(=O)OC)C(C)C)nc4-c4cccs4)cc3)cc2)[nH]1)C(C)C,300 pM,> 1 µM,44.6 µM,> 100 µM,> 100 µM,–
COC(=O)N[C@H](C(=O)N1C[C@@H](N=[N+]=[N-])C[C@H]1c1nc(Br)c(-c2ccc(-c3ccc(-c4[nH]c([C@@H]5C[C@H](N=[N+]=[N-])CN5C(=O)[C@@H](NC(=O)OC)C(C)C)nc4Br)cc3)cc2)[nH]1)C(C)C,55.3 pM,> 1 µM,3.4 µM,4.5 µM,–,–
